# Results reported in PMC4388869 (Journal of neuroimmune pharmacology : the official journal …, 2015).
# Where “and” joins values, the source holds several entries; their conditions need not be identical. Equal entries are not always repeated.
# Tests used:
# Y88F-hDAT [1] = biological target: T1, Y88F-hDAT (Homo sapiens, UniProt Q01959, Y88F); assay: Basal substrate efflux assay, CHO cells with Y88F-hDAT; format: cell-based
# Y88F-hDAT [2] = biological target: T1, Y88F-hDAT; format: cell-based
# Y470H-hDAT = Y470H-hDAT (Homo sapiens, UniProt Q01959, Y470H); assay: Basal substrate efflux assay, CHO cells with Y470H-hDAT; format: cell-based
# K92M-hDAT [3] = biological target: T2, K92M-hDAT (Homo sapiens, UniProt Q01959, K92M); assay: Basal substrate efflux assay, CHO cells with K92M-hDAT; format: cell-based
# K92M-hDAT [4] = biological target: T2, K92M-hDAT; format: cell-based
# Y470F-hDAT [5] = biological target: T3, Y470F-hDAT (Homo sapiens, UniProt Q01959, Y470F); assay: Basal substrate efflux assay, CHO cells with Y470F-hDAT; format: cell-based
# Y470A-hDAT [6] = biological target: T4, Y470A-hDAT (Homo sapiens, UniProt Q01959, Y470A); format: cell-based
# Y470F-hDAT [7] = biological target: T3, Y470F-hDAT; format: cell-based
# Y470A-hDAT [8] = biological target: T4, Y470A-hDAT; assay: Basal substrate efflux assay, CHO cells with Y470A-hDAT; format: cell-based
# WT hDAT [9] = biological target: T5, WT hDAT (Homo sapiens, UniProt Q01959); assay: Basal substrate efflux assay, CHO cells with WT hDAT; format: cell-based; conditions: preloading [3H]MPP+ 5 nM, 30 min
# WT hDAT [10] = biological target: T5, WT hDAT; assay: [3H]WIN 35,428 binding assay, WT hDAT; conditions: ZnCl2 10 µM, CHO cells
# WT hDAT [11] = biological target: T5, WT hDAT; format: cell-based; conditions: ZnCl2 10 µM, CHO cells
# Y88F-hDAT [12] = biological target: T1, Y88F-hDAT; assay: [3H]WIN 35,428 binding assay, Y88F-hDAT; conditions: ZnCl2 10 µM, CHO cells
# Y470A-hDAT [13] = biological target: T4, Y470A-hDAT; assay: [3H]WIN 35,428 binding assay, Y470A-hDAT; conditions: ZnCl2 10 µM, CHO cells
# Y470F-hDAT [14] = biological target: T3, Y470F-hDAT; assay: [3H]WIN 35,428 binding assay, Y470F-hDAT; conditions: ZnCl2 10 µM, CHO cells
# K92M-hDAT [15] = biological target: T2, K92M-hDAT; assay: [3H]WIN 35,428 binding assay, K92M-hDAT; conditions: ZnCl2 10 µM, CHO cells
# [16] = preloading 0.05 µM [3H]DA, 20 min, CHO cells
# [17] = transfected PC12 cells (Fig. 4 legend: CHO), room temperature, 8 min
# [18] = preloading [3H]MPP+ 5 nM, 30 min, CHO cells
# T3 sequence (Q01959 whole entry Y470F): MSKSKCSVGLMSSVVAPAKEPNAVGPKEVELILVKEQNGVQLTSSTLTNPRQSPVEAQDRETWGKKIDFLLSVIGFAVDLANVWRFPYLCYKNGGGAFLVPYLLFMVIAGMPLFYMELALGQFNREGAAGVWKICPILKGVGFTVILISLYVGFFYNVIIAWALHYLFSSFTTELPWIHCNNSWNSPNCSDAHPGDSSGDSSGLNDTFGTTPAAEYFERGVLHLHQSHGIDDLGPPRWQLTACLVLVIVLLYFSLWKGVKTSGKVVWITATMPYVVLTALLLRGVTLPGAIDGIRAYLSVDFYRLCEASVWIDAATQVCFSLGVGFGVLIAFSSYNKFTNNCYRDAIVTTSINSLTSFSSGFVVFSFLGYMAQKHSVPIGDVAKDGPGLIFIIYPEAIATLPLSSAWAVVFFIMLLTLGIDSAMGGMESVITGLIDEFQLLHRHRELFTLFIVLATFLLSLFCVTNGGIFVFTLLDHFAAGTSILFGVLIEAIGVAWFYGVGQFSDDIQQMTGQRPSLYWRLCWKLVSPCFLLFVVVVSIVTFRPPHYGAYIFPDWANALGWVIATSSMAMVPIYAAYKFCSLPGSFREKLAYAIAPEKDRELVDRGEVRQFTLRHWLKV
# T1 sequence (Q01959 whole entry Y88F): as the sequence (Q01959 whole entry Y470F) above, with Y88F, F470Y counted along it
# T5 sequence (Q01959 whole entry): as the sequence (Q01959 whole entry Y470F) above, with F470Y counted along it
# T2 sequence (Q01959 whole entry K92M): as the sequence (Q01959 whole entry Y470F) above, with K92M, F470Y counted along it
# T4 sequence (Q01959 whole entry Y470A): as the sequence (Q01959 whole entry Y470F) above, with F470A counted along it
# Y470H-hDAT, sequence (Q01959 whole entry Y470H): as the sequence (Q01959 whole entry Y470F) above, with F470H counted along it
compound,measurement,setting,value
"NCCc1ccc(O)c(O)c1 [DA, dopamine]",total [3H]DA in the cells at the start of the efflux experiment,Y88F-hDAT [1]; [16],41805 ± 6887 dpm
same,Vmax of [3H]DA uptake,Y88F-hDAT [2]; [17],14.8 ± 3.7 pmol/min/10^5 cells
same,basal fractional [3H]DA efflux compared to WT hDAT,"Y470H-hDAT; at 1, 10, 20 min",elevated
same,total [3H]DA in the cells at the start of the efflux experiment,Y470H-hDAT; [16],2488 ± 150 dpm
same,basal fractional [3H]DA efflux compared to WT hDAT,K92M-hDAT [3]; at 1 and 10 min,elevated
same,total [3H]DA in the cells at the start of the efflux experiment,K92M-hDAT [3]; [16],9655 ± 2160 dpm
same,Vmax of [3H]DA uptake,K92M-hDAT [4]; [17],4.5 ± 1.7 pmol/min/10^5 cells
same,basal DA efflux compared to WT hDAT,Y470F-hDAT [5],no effect
same,total [3H]DA in the cells at the start of the efflux experiment,Y470F-hDAT [5]; [16],20908 ± 4209 dpm
same,Vmax of [3H]DA uptake,Y470A-hDAT [6]; transfected PC12 cells,1.2 ± 0.2 pmol/min/10^5 cells
same,Km of [3H]DA uptake compared to WT hDAT,Y470F-hDAT [7]; transfected PC12 cells,did not alter
same,Vmax of [3H]DA uptake compared to WT hDAT,Y470F-hDAT [7]; transfected PC12 cells,did not alter
same,basal fractional [3H]DA efflux compared to WT hDAT,Y470A-hDAT [8]; at 1 and 10 min,elevated
same,total [3H]DA in the cells at the start of the efflux experiment,Y470A-hDAT [8]; [16],1158 ± 123 dpm
"C[n+]1ccc(-c2ccccc2)cc1 [MPP^+, 1-methyl-4-phenylpyridinium]",basal fractional [3H]MPP+ efflux compared to WT hDAT,Y88F-hDAT [1]; at all time points,did not alter
same,total [3H]MPP+ in the cells at the start of the efflux experiment,Y88F-hDAT [1]; [18],5695 ± 450 dpm
same,total [3H]MPP+ in the cells at the start of the efflux experiment,WT hDAT [9],12120 ± 397 dpm and 15516 ± 920 dpm
same,total [3H]MPP+ in the cells at the start of the efflux experiment,Y470H-hDAT; [18],602 ± 28 dpm
same,basal fractional [3H]MPP+ efflux compared to WT hDAT,K92M-hDAT [3]; at all time points,did not alter
same,total [3H]MPP+ in the cells at the start of the efflux experiment,K92M-hDAT [3]; [18],967 ± 121 dpm
same,basal MPP+ efflux compared to WT hDAT,Y470F-hDAT [5],no effect
same,total [3H]MPP+ in the cells at the start of the efflux experiment,Y470F-hDAT [5]; [18],7399 ± 359 dpm
same,basal fractional [3H]MPP+ efflux compared to WT hDAT,Y470A-hDAT [8]; at all time points,elevated
same,total [3H]MPP+ in the cells at the start of the efflux experiment,Y470A-hDAT [8]; [18],460 ± 46 dpm
"[Cl-].[Cl-].[Zn+2] [Zn^2+, ZnCl2]","increase of [3H]WIN 35,428 binding by Zn2+ relative to control",WT hDAT [10],48% and 54%
same,decrease of [3H]DA uptake by Zn2+ relative to control,WT hDAT [11],47% and 48%
same,decrease of [3H]DA uptake by Zn2+ relative to control,"Y88F-hDAT [2]; ZnCl2 10 µM, CHO cells",73%
same,"effect of Zn2+ on [3H]WIN 35,428 binding",Y88F-hDAT [12],did not significantly alter
same,"effect of Zn2+ on [3H]WIN 35,428 binding",Y470A-hDAT [13],but not in Y470F-hDAT and Y470A-hDAT
same,"effect of Zn2+ on [3H]WIN 35,428 binding",Y470F-hDAT [14],but not in Y470F-hDAT and Y470A-hDAT
same,decrease of [3H]DA uptake by Zn2+ relative to control,"K92M-hDAT [4]; ZnCl2 10 µM, CHO cells",81%
same,decrease of [3H]DA uptake by Zn2+ relative to control,"Y470A-hDAT [6]; ZnCl2 10 µM, CHO cells",72%
same,decrease of [3H]DA uptake by Zn2+ relative to control,"Y470F-hDAT [7]; ZnCl2 10 µM, CHO cells",49%
same,"effect of Zn2+ on [3H]WIN 35,428 binding",K92M-hDAT [15],did not significantly alter
